The values below come from patent EP1019422B1, “PHOSPHINE-SUBSTITUTED COBALTICINIUM SALTS, PRODUCTION THEREOF, AND USE OF THE SAME AS CONSTITUENTS OF CATALYSTS” (Celanese Chemicals Europe GmbH, priority 1997, dated 1999).

One data set in a line: Solubility properties of the compounds (Table 1). It is filed as physicochemical. The following applies: qualitative; solvents named in the cell. From the text: In Tabelle 1 sind die erfindungsgemäßen Verbindungen bezüglich ihrer Farbe/Konsistenz und bezüglich ihrer Löslichkeitseigenschaften zusammengestellt.
Take “1,1'-Bis(diphenylphosphino)cobalticinium Tetrafluoroborat [Beispiel 1]”: the Löslichkeitseigenschaften entry is listed as “löslich in Methylenchlorid, Nitro-methan, Methanol und Aceton”.

As to “1,1'-Bis(diphenylphosphino)cobalticinium Tosylat [Beispiel 4]”, the Löslichkeitseigenschaften result is recorded as “löslich in Methylenchlorid, Methanol, Aceton, Nitromethan”.

As to “1,1'-Bis(diphenylphosphino)cobalticinium Trifluoracetat [Beispiel 6]”, the Löslichkeitseigenschaften entry is reported as “löslich in Methylenchlorid, Aceton, Methanol, Nitromethan”.

Turning to “1,1'-Bis(diphenylphosphinoindenyl)-cobalticinium-Tetrafluoroborat [Beispiel 8]”, the Löslichkeitseigenschaften entry is reported as “löslich in Methylenchlorid”.

Consider `C1=CC(P(c2ccccc2)c2ccccc2)C=C1.[Co+2].[F][Sb-]([F])([F])([F])([F])[F].c1ccc(P(c2ccccc2)[c-]2cccc2)cc1` [Beispiel 2, 1,1'-Bis(diphenylphosphino)cobalticinium Hexafluoroantimonat], for which the Löslichkeitseigenschaften result is “löslich in Methylenchlorid, Nitromethan, Methan und Aceton”.

For `C1=CC(P(c2ccccc2)c2ccccc2)C=C1.O=[N+]([O-])[O-].[Co+2].c1ccc(P(c2ccccc2)[c-]2cccc2)cc1` [Beispiel 3, 1,1'-Bis (diphenylphosphino)cobalticinium Nitrat], the Löslichkeitseigenschaften result is reported as “löslich in warmem Wasser”.

`C1=CC(P(c2ccccc2)c2ccccc2)C=C1.O=S(=O)([O-])C(F)(F)F.[Co+2].c1ccc(P(c2ccccc2)[c-]2cccc2)cc1` [Beispiel 5, 1,1'-Bis(diphenylphosphino)cobalticinium Triflat]: the Löslichkeitseigenschaften result is “löslich in Methylenchlorid, Aceton, Nitromethan, Methanol”.

As for `C1=CC(P(c2ccccc2)c2ccccc2)C=C1.[Co+2].c1ccc(P(c2ccccc2)[c-]2cccc2)cc1.c1ccc([B-](c2ccccc2)(c2ccccc2)c2ccccc2)cc1` [Beispiel 7, 1,1'-Bis(diphenylphosphino)cobalticinium Tetraphenylborat], the Löslichkeitseigenschaften result was “löslich in Methylenchlorid”.

Staying with this data set, now noted: water; in contrast to the other compounds of formula I and the known hexafluorophosphate.
As to `C1=CC(P(c2ccccc2)c2ccccc2)C=C1.O=[N+]([O-])[O-].[Co+2].c1ccc(P(c2ccccc2)[c-]2cccc2)cc1` [Beispiel 3, 1,1'-Bis (diphenylphosphino)cobalticinium Nitrat], the “Löslichkeit in Wasser” value is “gute Löslichkeit in Wasser”.
